Values of other authors, collected in patent US20200206223A1, “LIQUID DOSAGE FORMS OF IMATINIB” (FTF PHARMA PRIVATE LIMITED, priority 2017, published 2020).

For Cc1ccc(NC(=O)c2ccc(CN3CCNCC3)cc2)cc1Nc1nccc(-c2cccnc2)n1 [N-desmethyl derivative], the “Share of the AUC for Imatinib mesylate” value (main circulating active metabolite) is given as “about 15%” and the Elimination half-life (orally administered imatinib mesylate) is given as ~40 h.
